Patent US20230058623A1, “NOVEL HETEROARYL-TRIAZOLE COMPOUNDS AS PESTICIDES” (Bayer Aktiengesellschaft, priority 2019, published 2023)

Tests used:
Type in all cases: in vivo
[1] = test system: adult flies Musca domestica strain WHO-N; assay: Musca domestica test (MUSCDO surface treatment & contact assay); conditions: 24 hours after contact, read-out: efficacy (mortality); for mortality at 4 mg/m2: surface concentration 4 mg/m^2, exposure 30 minutes; for mortality at 20 mg/m2: surface concentration 20 mg/m^2, exposure 30 minutes
In short: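 Compound dissolved at 2 mg/ml in acetone with 2000 ppm RME, applied to glazed tile and dried; adult flies exposed on the surface for 30 min. Percent mortality scored 24 h after contact.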

[2] = test system: adult mosquitoes Aedes aegypti strain MONHEIM; assay: Aedes aegypti test (AEDSAE surface treatment & contact assay); conditions: 24 hours after contact, read-out: efficacy (mortality); for mortality at 4 mg/m2: surface concentration 4 mg/m^2, exposure 30 minutes; for mortality at 20 mg/m2: surface concentration 20 mg/m^2, exposure 30 minutes
In short: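 Compound in acetone (2 mg/ml) with 2000 ppm RME dried onto glazed tile; adults exposed to the treated surface for 30 min. Percent mortality scored 24 h after contact.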

[3] = test system: larvae of the southern green stink bug (Nezara viridula); assay: Nezara viridula spray test; conditions: 96 h, after 4 days, barley plants; for mortality at 100 g/ha: application rate 100 g/ha; for mortality at 500 g/ha: application rate 500 g/ha, read-out: activity (mortality)
In short: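 Barley plants sprayed with the active compound in emulsifier-containing water, then infested with stink bug larvae. Mortality scored in % after 4 days, with 100% meaning all insects killed.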

[4] = test system: larvae of the banded cucumber beetle (Diabrotica balteata); assay: Diabrotica balteata spray test; conditions: 168 h, after 7 days, wheat seeds, read-out: activity (efficacy: seedlings grown); for pest or weed control at 32 µg/disc, 100 g/ha: application rate 100 g/ha (=32 μg/well)
In short: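 Wheat seeds germinated 1 day on agar were sprayed with compound diluted in water with 1000 ppm emulsifier, then infested with 10-20 Diabrotica balteata larvae. Efficacy in % scored after 7 days: 100% = seedlings grown as untreated, uninfected control; 0% = no seedlings grown.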

[5] = test system: adult engorged female ticks (Rhipicephalus microplus); assay: Rhipicephalus (Boophilus) microplus injection test; conditions: 168 h, application rate 4 μg/tick, egg deposition after 7 days, read-out: activity (efficacy: infertile eggs)
In short: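 Five adult engorged female ticks injected into the abdomen with 1 μL compound solution in DMSO, then held in a climate chamber. Fertile egg deposition assessed after 7 days, unclear eggs kept until hatching (about 42 days); efficacy 100% = all eggs infertile, 0% = all fertile.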

[6] = test system: green peach aphid (Myzus persicae); assay: Myzus persicae oral test; conditions: 120 h, read-out: activity (mortality)
In short: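 Compound was dissolved at 1 part by weight in 100 parts acetone, then diluted with water to test concentration and combined with IPL41 insect medium (33%+15% sugar). A mixed aphid population fed on this through a parafilm seal, and mortality (%) was scored after 5 days.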

[7] = test system: fall armyworm larvae (Spodoptera frugiperda); assay: Spodoptera frugiperda spray test; conditions: 168 h, application rate 100 g/ha, after 7 days, maize leaf sections
In short: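 Compound mixed with solvent, diluted with 1000 ppm emulsifier water to test concentrations; sprayed on maize leaf pieces; dried; larvae added; mortality (%) scored at 7 d.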

[8] = test system: adult unfed cat fleas (Ctenocephalides felis); assay: Ctenocephalides felis oral test; conditions: 48 h, read-out: activity (mortality)
In short: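 About 20 adult unfed cat fleas fed through parafilm on citrated cattle blood containing compound (from a DMSO concentrate). Blood held at 37° C, fleas at room temperature. Mortality in % scored after 2 days.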

Row | SMILES | mortality at 4 mg/m2 [1] [%] | mortality at 20 mg/m2 [1] [%] | mortality at 4 mg/m2 [2] [%] | mortality at 20 mg/m2 [2] [%] | mortality at 100 g/ha [3] [%] | mortality at 500 g/ha [3] [%] | pest or weed control at 32 µg/disc, 100 g/ha [4] [%] | pest or weed control at 160 µg/disc, 500 g/ha ([4]; application rate 500 g/ha (=160 μg/well)) [%] | pest or weed control at 0.004 mg [5] [%] | mortality at 4 ppm [6] [%] | mortality at 100 g/ha [7] [%] | mortality at 100 ppm [8] [%]
1 | C[C@H](NC(=O)c1cc(C(F)(F)F)cc(C(F)(F)F)c1)c1ncnn1-c1ccc(C(=O)N2CCOCC2)cn1 [Example I-2] | 80 to 100 | 80 to 100 | 80 to 100 | 80 to 100 | 100 | 100 | 100 | 100 | 100 | 100 | 100 | 
2 | Cc1nc([C@H](C)NC(=O)c2cc(C(F)(F)F)cc(C(F)(F)F)c2)n(-c2ncc(C(=O)N3CCOCC3)s2)n1 [Example I-4] | 80 to 100 |  |  | 80 to 100 |  |  | 100 |  | 100 | 100 | 100 | 100
3 | CC1CN(C(=O)c2ccc(-n3ncnc3[C@H](C)NC(=O)c3cc(C(F)(F)F)cc(C(F)(F)F)c3)nc2)CC(C)O1 (stereo partly drawn) [Example I-5] | 80 to 100 | 80 to 100 | 80 to 100 | 80 to 100 |  |  |  |  | 100 | 100 | 100 | 100
4 | COC1CCCN(C(=O)c2ccc(-n3ncnc3[C@H](C)NC(=O)c3cc(C(F)(F)F)cc(C(F)(F)F)c3)nc2)C1 (stereo partly drawn) [Example I-8] |  | 80 to 100 |  | 80 to 100 | 90 |  |  |  | 100 | 100 | 100 | 100
5 | Cc1nc([C@H](C)NC(=O)c2cc(C(F)(F)F)cc(C(F)(F)F)c2)n(-c2ccc(C(=O)N3CCOCC3)cn2)n1 [Example I-9, N-[(1S)-1-{3-methyl-1-[5-(morpholin-4-ylcarbonyl)pyridin-2-yl]-1H-1,2,4-triazol-5-yl}ethyl]-3,5-bis(trifluoromethyl)benzamide] | 80 to 100 | 80 to 100 | 80 to 100 | 80 to 100 | 100 |  | 100 |  | 100 | 100 | 100 | 
6 | C[C@H](NC(=O)c1cc(C(F)(F)F)cc(C(F)(F)F)c1)c1ncnn1-c1ccc(C(=O)N2CCCC2)cn1 [Example I-11] |  | 80 to 100 | 80 to 100 | 80 to 100 | 100 |  | 80 |  | 100 | 100 | 100 | 
7 | COC1CN(C(=O)c2ccc(-n3ncnc3[C@H](C)NC(=O)c3cc(C(F)(F)F)cc(C(F)(F)F)c3)nc2)C1 [Example I-15] |  | 80 to 100 |  | 80 to 100 |  |  | 80 |  | 100 | 100 | 100 | 100
8 | Cc1nc([C@H](C)NC(=O)c2cc(Cl)cc(C(F)(F)F)c2)n(-c2ccc(C(=O)N3CC(C)OC(C)C3)cn2)n1 (stereo partly drawn) [Example I-29] |  | 80 to 100 | 80 to 100 | 80 to 100 | 90 |  | 100 |  | 100 | 100 | 83 | 100
9 | C[C@@H]1CN(C(=O)c2ccc(-n3ncnc3[C@H](C)NC(=O)c3cc(Cl)cc(C(F)(F)F)c3)nc2)C[C@H](C)O1 [Example I-31] |  | 80 to 100 | 80 to 100 | 80 to 100 | 90 |  | 100 |  | 100 | 100 | 100 | 100
10 | C[C@H](NC(=O)c1cc(Cl)cc(C(F)(F)F)c1)c1ncnn1-c1ccc(C(=O)N2CCS(=O)(=O)CC2)cn1 [Example I-35] |  |  | 80 to 100 | 80 to 100 | 100 |  | 100 |  | 100 | 100 |  | 100
11 | C[C@H](NC(=O)c1cc(Cl)cc(C(F)(F)F)c1)c1ncnn1-c1ccc(C(=O)N2CCSCC2)cn1 [Example I-36] | 80 to 100 | 80 to 100 | 80 to 100 | 80 to 100 | 100 |  | 80 |  | 100 | 100 |  | 100
12 | Cc1nc([C@H](C)NC(=O)c2cc(C(F)(F)F)cc(C(F)(F)F)c2)n(-c2ccc(C(=O)N3C[C@@H](C)O[C@@H](C)C3)cn2)n1 [Example I-45] | 80 to 100 | 80 to 100 |  | 80 to 100 | 100 |  | 100 |  | 100 | 100 | 100 | 100
13 | C[C@@H]1CN(C(=O)c2ccc(-n3ncnc3[C@H](C)NC(=O)c3cc(C(F)(F)F)cc(C(F)(F)F)c3)nc2)C[C@@H](C)O1 [Example I-46] |  | 80 to 100 |  | 80 to 100 | 100 |  | 100 |  | 100 | 100 | 100 | 100
14 | C[C@@H]1CN(C(=O)c2ccc(-n3ncnc3[C@H](C)NC(=O)c3cc(C(F)(F)F)cc(C(F)(F)F)c3)nc2)C[C@H](C)O1 [Example I-50] | 80 to 100 | 80 to 100 | 80 to 100 | 80 to 100 | 100 |  | 100 |  | 100 | 100 | 100 | 100
15 | C[C@@H]1CN(C(=O)c2ccc(-n3ncnc3[C@H](C)NC(=O)c3cc(C(F)(F)F)cc(C(F)(F)F)c3)nc2)CCO1 [Example I-69] | 80 to 100 | 80 to 100 |  | 80 to 100 |  |  | 100 |  |  | 100 | 100 | 
16 | C[C@H](NC(=O)c1cc(C(F)(F)F)cc(C(F)(F)F)c1)c1ncnn1-c1ccc(C(=O)N2CCS(=O)(=O)CC2)cn1 [Example I-75] | 80 to 100 | 80 to 100 | 80 to 100 | 80 to 100 |  | 100 | 100 |  |  | 100 | 100 | 
17 | Cc1nc([C@H](C)NC(=O)c2cc(C(F)(F)F)cc(C(F)(F)F)c2)n(-c2ccc(C(=O)N3CCS(=O)(=O)CC3)cn2)n1 [Example I-76] | 80 to 100 | 80 to 100 | 80 to 100 | 80 to 100 |  | 100 |  |  |  | 100 | 100 | 
18 | C[C@H](NC(=O)c1cc(C(F)(F)F)cc(C(F)(F)F)c1)c1ncnn1-c1ccc(C(=O)N2C[C@H](C)O[C@@H](C)C2)cn1 [Example I-94] | 80 to 100 | 80 to 100 | 80 to 100 | 80 to 100 | 100 |  | 100 |  | 100 |  | 100 | 100
19 | C[C@@H]1CN(C(=O)c2ccc(-n3ncnc3[C@H](C)NC(=O)c3cc(OC(F)(F)F)cc(C4CC4)c3)nc2)C[C@H](C)O1 [Example I-114] | 80 to 100 | 80 to 100 |  | 80 to 100 |  |  | 100 |  | 100 | 100 | 100 | 100
